Source: patent US20260217651A1 (priority 2022, published 2026)

System: SD rats
Assay: animal or person
Assay type: in vivo, rat
Conditions: iv; for minimal effective dose: Rattus norvegicus, read-out: Minimal effective anesthetic dose(mg/kg); for Onset time / Righting Reflex Duration / Sedation Duration / Minimal effective anesthetic dose(mg/kg): rat, in vivo

Question: What does the source list for `COC(=O)N(c1ccccc1)C1CCN(c2cc(C(C)C)c(O)c(C(C)C)c2)CC1` [Cpd-3]?
Answer: minimal effective dose: < 5 mg/kg; Onset time: 0.20 to 0.67 min; Righting Reflex Duration: 5.83 to 22.20 min; Sedation Duration: 24.65 to 38.02 min

Question: Which results are given for `CCC(=O)N(C1CC1)C1CCN(c2cc(C(C)C)c(O)c(C(C)C)c2)CC1` [Cpd-5]?
Answer: minimal effective dose: 5 to 10 mg/kg; Onset time: 0.45 min; Righting Reflex Duration: 6.40 min; Sedation Duration: 17.12 min

Question: Which results are given for `COC(=O)CN(C1CC1)C1CCN(c2cc(C(C)C)c(O)c(C(C)C)c2)CC1` [Cpd-8]?
Answer: minimal effective dose: 5 to 10 mg/kg; Onset time: 0.40 min; Righting Reflex Duration: 7.73 min; Sedation Duration: 17.93 min

Question: What does the source list for `COC(=O)CN(c1ccccc1)C1CCN(c2cc(C(C)C)c(O)c(C(C)C)c2)CC1` [Cpd-10]?
Answer: minimal effective dose: 5 to 10 mg/kg; Onset time: 0.42 to 0.45 min; Righting Reflex Duration: 6.47 to 27.50 min; Sedation Duration: 47.22 to 66.70 min

Question: How did the minimal effective dose turn out when `CC(=O)N(c1ccccc1)C1CCN(c2cc(C(C)C)c(O)c(C(C)C)c2)CC1` [Cpd-12] was run?
Answer: 10 to 20 mg/kg

Question: What about the “Onset time” value of the same compound?
Answer: 0.45 min

Question: What about the “Righting Reflex Duration” value of the same compound?
Answer: 6.85 min

Question: What about the “Sedation Duration” value of the same compound?
Answer: 55.12 min

Question: How did the minimal effective dose turn out when `CC(C)C(=O)N(c1ccccc1)C1CCN(c2cc(C(C)C)c(O)c(C(C)C)c2)CC1` [Cpd-14] was run?
Answer: 5 to 10 mg/kg

Question: What about the “Onset time” value of the same compound?
Answer: 0.48 min

Question: And the “Righting Reflex Duration” value?
Answer: 17.60 min

Question: And the “Sedation Duration” value?
Answer: 42.83 min

Question: Which minimal effective dose does the source give for `CC(C)OC(=O)N(c1ccccc1)C1CCN(c2cc(C(C)C)c(O)c(C(C)C)c2)CC1` [Cpd-15] here?
Answer: 5 to 10 mg/kg

Question: What about the “Onset time” value of the same compound?
Answer: 0.67 min

Question: What about the “Righting Reflex Duration” value of the same compound?
Answer: 16.28 min

Question: And the “Sedation Duration” value?
Answer: 29.90 min

Question: What does the source list for `CCC(=O)N(c1ccccc1)C1CCN(c2cc(C(C)C)c(O)c([C@H](C)C3CC3)c2)CC1` [Cpd-18]?
Answer: minimal effective dose: 5 to 10 mg/kg; Onset time: 0.20 to 0.57 min; Righting Reflex Duration: 5.55 to 20.30 min; Sedation Duration: 26.77 to 47.53 min

Question: `CCOC(=O)C1(c2ccccn2)CCN(c2cc(C(C)C)c(O)c(C(C)C)c2)CC1.Cl` [Cpd-23] was tested. Which minimal effective dose did it give?
Answer: 10 to 20 mg/kg

Question: And the “Onset time” value?
Answer: 0.53 min

Question: And the “Righting Reflex Duration” value?
Answer: 13.95 min

Question: What about the “Sedation Duration” value of the same compound?
Answer: 41.02 min

Question: How did the minimal effective dose turn out when `CCOC(=O)C1(c2ccc(F)cc2F)CCN(c2cc(C(C)C)c(O)c(C(C)C)c2)CC1` [Cpd-27] was run?
Answer: 20 to 40 mg/kg

Question: What about the “Onset time” value of the same compound?
Answer: 1.47 min

Question: What about the “Righting Reflex Duration” value of the same compound?
Answer: 36.80 min

Question: And the “Sedation Duration” value?
Answer: 67.40 min

Question: For `CCC(=O)N(CC1CCN(c2cc(C(C)C)c(O)c(C(C)C)c2)CC1)c1ccccc1` [Cpd-32], which minimal effective dose is on record?
Answer: 5 to 10 mg/kg

Question: What about the “Onset time” value of the same compound?
Answer: 0.52 min

Question: And the “Righting Reflex Duration” value?
Answer: 2.67 min

Question: What about the “Sedation Duration” value of the same compound?
Answer: 19.68 min

Question: With `CCOC(=O)C1(c2ccccc2F)CCN(c2cc(C(C)C)c(O)c(C(C)C)c2)CC1` [Cpd-34] as the compound, how does the minimal effective dose read?
Answer: 10 to 20 mg/kg

Question: And the “Onset time” value?
Answer: 0.88 min

Question: What about the “Righting Reflex Duration” value of the same compound?
Answer: 10.28 min

Question: And the “Sedation Duration” value?
Answer: 29.75 min

Question: Which minimal effective dose does the source give for `CCOC(=O)C1(c2cccc(Cl)c2)CCN(c2cc(C(C)C)c(O)c(C(C)C)c2)CC1` [Cpd-37] here?
Answer: 5 to 10 mg/kg

Question: And the “Onset time” value?
Answer: 2.63 min

Question: What about the “Righting Reflex Duration” value of the same compound?
Answer: 0.65 min

Question: And the “Sedation Duration” value?
Answer: 21.73 min

Question: `CCC(=O)N(c1cc(C(C)C)c(O)c([C@H](C)C2CC2)c1)N1CCN(CCC(=O)OC)CC1` [Cpd-50] was tested. Which minimal effective dose did it give?
Answer: 20 to 40 mg/kg

Question: What about the “Onset time” value of the same compound?
Answer: 1.03 min

Question: What about the “Righting Reflex Duration” value of the same compound?
Answer: 1.47 min

Question: What about the “Sedation Duration” value of the same compound?
Answer: 66.48 min

Question: Which minimal effective dose does the source give for `CCOC(=O)N(c1ccccc1)N1CCN(c2cc(C(C)C)c(O)c(C(C)C)c2)CC1` [Cpd-51] here?
Answer: 5 to 10 mg/kg

Question: What about the “Onset time” value of the same compound?
Answer: 0.65 to 0.97 min

Question: And the “Righting Reflex Duration” value?
Answer: 2.52 to 14.47 min

Question: What about the “Sedation Duration” value of the same compound?
Answer: 22.27 to 35.75 min

Question: With `CC(C)OC(=O)N(c1ccccc1)N1CCN(c2cc(C(C)C)c(O)c(C(C)C)c2)CC1` [Cpd-52] as the compound, how does the minimal effective dose read?
Answer: 5 to 10 mg/kg

Question: What about the “Onset time” value of the same compound?
Answer: 0.52 to 0.98 min

Question: And the “Righting Reflex Duration” value?
Answer: 13.92 to 16.42 min

Question: And the “Sedation Duration” value?
Answer: 28.53 to 94.30 min

Question: `CCOC(=O)N(c1ccccc1)N1CCN(c2cc(C(C)C)c(O)c([C@H](C)C3CC3)c2)CC1` [Cpd-59] was tested. Which minimal effective dose did it give?
Answer: 10 to 20 mg/kg

Question: What about the “Onset time” value of the same compound?
Answer: 0.37 to 0.85 min

Question: And the “Righting Reflex Duration” value?
Answer: 21.18 to 24.15 min

Question: What about the “Sedation Duration” value of the same compound?
Answer: 37.27 to 47.68 min

Question: For `CCOC(=O)N(c1cccc(C)c1)N1CCN(c2cc(C(C)C)c(O)c(C(C)C)c2)CC1` [Cpd-62], which minimal effective dose is on record?
Answer: 10 to 20 mg/kg

Question: What about the “Onset time” value of the same compound?
Answer: 1.15 to 2.15 min

Question: And the “Righting Reflex Duration” value?
Answer: 1.22 to 17.28 min

Question: And the “Sedation Duration” value?
Answer: 55.48 to 85.02 min

Question: For `CCOC(=O)N(c1ccc(F)cc1)N1CCN(c2cc(C(C)C)c(O)c(C(C)C)c2)CC1` [Cpd-64], which minimal effective dose is on record?
Answer: 10 to 20 mg/kg

Question: What about the “Onset time” value of the same compound?
Answer: 0.43 to 0.47 min

Question: And the “Righting Reflex Duration” value?
Answer: 3.70 to 7.22 min

Question: And the “Sedation Duration” value?
Answer: 26.92 to 42.58 min

Question: `CCOC(=O)N(c1cccc(OC)c1)N1CCN(c2cc(C(C)C)c(O)c([C@H](C)C3CC3)c2)CC1` [Cpd-71] was tested. Which minimal effective dose did it give?
Answer: 10 to 20 mg/kg

Question: And the “Onset time” value?
Answer: 0.55 min

Question: And the “Righting Reflex Duration” value?
Answer: 17.52 min

Question: What about the “Sedation Duration” value of the same compound?
Answer: 37.65 min

Question: With `CCOC(=O)N(c1ccc(C)cc1)N1CCN(c2cc(C(C)C)c(O)c([C@H](C)C3CC3)c2)CC1` [Cpd-74] as the compound, how does the minimal effective dose read?
Answer: 20 to 40 mg/kg

Question: And the “Onset time” value?
Answer: 0.50 min

Question: What about the “Righting Reflex Duration” value of the same compound?
Answer: 26.28 min

Question: And the “Sedation Duration” value?
Answer: 69.23 min

Question: Which results are given for `COC(=O)CC1CCN(Cc2cc(C(C)C)c(O)c([C@H](C)C3CC3)c2)CC1` [Cpd-77]?
Answer: minimal effective dose: < 5 mg/kg; Onset time: 1.00 to 1.80 min; Righting Reflex Duration: 0.67 to 1.95 min; Sedation Duration: 5.00 to 22.33 min

Question: What does the source list for `COC(=O)CN1CCN(Cc2cc(C(C)C)c(O)c([C@H](C)C3CC3)c2)CC1` [Cpd-78-1]?
Answer: minimal effective dose: 5 to 10 mg/kg; Onset time: 0.62 min; Righting Reflex Duration: 2.73 min; Sedation Duration: 22.58 min

Question: `COC(=O)CC1CCN(c2cc(C(C)C)c(O)c([C@H](C)C3CC3)c2)CC1` [Cpd-80] was tested. Which minimal effective dose did it give?
Answer: < 5 mg/kg

Question: And the “Onset time” value?
Answer: 0.17 to 0.97 min

Question: And the “Righting Reflex Duration” value?
Answer: 1.50 to 12.97 min

Question: And the “Sedation Duration” value?
Answer: 10.17 to 28.53 min

Question: How did the minimal effective dose turn out when `CC(C)c1cc(N2CCC(CC(=O)OC(C)(C)C)CC2)cc([C@H](C)C2CC2)c1O` [Cpd-81] was run?
Answer: < 5 mg/kg

Question: And the “Onset time” value?
Answer: 0.18 to 0.75 min

Question: What about the “Righting Reflex Duration” value of the same compound?
Answer: 9.28 to 40.37 min

Question: What about the “Sedation Duration” value of the same compound?
Answer: 27.22 to 57.86 min

Question: Which results are given for `COC(=O)CCC1CCN(c2cc(C(C)C)c(O)c([C@H](C)C3CC3)c2)CC1` [Cpd-82]?
Answer: minimal effective dose: < 5 mg/kg; Onset time: 0.17 to 0.52 min; Righting Reflex Duration: 0.87 to 3.42 min; Sedation Duration: 3.67 to 13.02 min

Question: With `COC(=O)C1CCN(c2cc(C(C)C)c(O)c([C@H](C)C3CC3)c2)CC1` [Cpd-84-1] as the compound, how does the minimal effective dose read?
Answer: < 5 mg/kg

Question: And the “Onset time” value?
Answer: 0.43 to 0.77 min

Question: What about the “Righting Reflex Duration” value of the same compound?
Answer: 0.77 to 4.62 min

Question: What about the “Sedation Duration” value of the same compound?
Answer: 5.72 to 10.28 min

Question: Which results are given for `COC(=O)C1CCN(c2cc(C(C)C)c(O)c([C@H](C)C3CC3)c2)CC1` [Cpd-84]?
Answer: Minimal effective anesthetic dose(mg/kg): A (key: A≤5 mg/kg; 5 mg/kg<B≤10 mg/kg; 10 mg/kg<C≤20 mg/kg; 20 mg/kg<D≤40 mg/k; E>40 mg/kg); Onset time: 0.30 to 0.75 min; Righting Reflex Duration: 1.10 to 17.23 min; Sedation Duration: 18.08 to 35.02 min

Question: What does the source list for `CC(C)c1cc(N2CCC(C(=O)OC(C)(C)C)CC2)cc([C@H](C)C2CC2)c1O` [Cpd-85-1]?
Answer: minimal effective dose: < 5 mg/kg; Onset time: 0.40 to 1.33 min; Righting Reflex Duration: 1.38 to 29.00 min; Sedation Duration: 20.97 to 44.48 min

Question: Which “Minimal effective anesthetic dose(mg/kg)” value does the source give for `CC(C)c1cc(N2CCC(C(=O)OC(C)(C)C)CC2)cc([C@H](C)C2CC2)c1O` [Cpd-85] here?
Answer: A (key: A≤5 mg/kg; 5 mg/kg<B≤10 mg/kg; 10 mg/kg<C≤20 mg/kg; 20 mg/kg<D≤40 mg/k; E>40 mg/kg)

Question: And the “Onset time” value?
Answer: 0.18 to 0.55 min

Question: What about the “Righting Reflex Duration” value of the same compound?
Answer: 1.28 to 4.92 min

Question: And the “Sedation Duration” value?
Answer: 5.05 to 15.13 min

Question: With `COC(=O)CN1CC=C(c2cc(C(C)C)c(O)c([C@H](C)C3CC3)c2)CC1` [Cpd-86] as the compound, how does the minimal effective dose read?
Answer: < 5 mg/kg

Question: What about the “Onset time” value of the same compound?
Answer: 0.17 to 0.20 min

Question: And the “Righting Reflex Duration” value?
Answer: 1.15 to 10.33 min

Question: What about the “Sedation Duration” value of the same compound?
Answer: 16.40 to 19.62 min

Question: What does the source list for `COC(=O)CN1CCC(N(CC(=O)OC)c2cc(C(C)C)c(O)c([C@H](C)C3CC3)c2)CC1` [Cpd-87]?
Answer: minimal effective dose: 10 to 20 mg/kg; Onset time: 0.42 min; Righting Reflex Duration: 1.85 min; Sedation Duration: 19.32 min

Question: For `C=C[C@@H](C)c1cc(N2CCN(CC(=O)OC)CC2)cc(C(C)C)c1O` [Cpd-89], which minimal effective dose is on record?
Answer: 10 to 20 mg/kg

Question: What about the “Onset time” value of the same compound?
Answer: 0.18 min

Question: And the “Righting Reflex Duration” value?
Answer: 0.88 min

Question: What about the “Sedation Duration” value of the same compound?
Answer: 22.78 min
